From patent US12312605B2, “Riboflavin derivative-containing medium” (AJINOMOTO CO., INC., priority 2017, dated 2025)
Structures can show the parent of a compound that is named as a salt.

What was measured:
Type in all cases: cell-based
[1] = tested on: iPS cells (201B7 strain); test: Effective concentration of RFV derivatives: iPS cell growth in medium refrigerated for 2 weeks; parameters: key to cell growth: X; not grown; ◯; cell grown; conditions: for storage stability of medium compared with RFV: any medium (Essential 8 or TeSR2 supplement), refrigerated 2 weeks
Description: (§1) 201B7 strain purchased from iPS Academia Japan, Inc. was used as the iPS cell. Cell culture was performed using a culture vessel coated with Matrigel (Nippon Becton, Dickinson and Company: 354277) or iMatrix-511 (Nippi. Inc.: 892002) as an extracellular matrix under conditions of 5% CO2/37° C.
(§2) Modified DMEM/F-12 was mixed with each supplement of Essential 8 (Thermo Fisher SCIENTIFIC: A1517001), TeSR-E8 (STEMCELL Technologies: #05940), TeSR2 (STEMCELL Technologies: #05860) to prepare a complete medium. The medium was stored in a refrigerator with a glass door under non-light-shielding (fluorescent light irradiation time: 10 hr/day) and then used for culture, based on which the storage stability of the medium was studied.
The effectiveness of FAD and RTB, which are RFV derivatives, was studied, and the effective concentration ranges of FMN, FAD and RTB were studied. A complete medium was prepared using Modified DMEM/F-12 (FMN−) as the basal medium and Essential 8 or TeSR2 supplement as the supplement. RFV, FMN (Riboflavin 5′-Monophosphate Sodium Salt), FAD (Flavin Adenine Dinucleotide Disodium Salt Hydrate (Tokyo Chemical m Industry Co., Ltd., F0014, hereinafter the same)) and RTB (Riboflavin Tetrabutyrate, Wako Pure Chemical Industries, Ltd., 185-00861) were each added to the complete medium at a final concentration of 0.47 to 15.2 μM (concentration converted to free form anhydrate in the case of salt and/or hydrate). A medium supplemented with Fe^2+ and Zn^2+ at 100 mol % was also prepared.
(§3) Each medium was refrigerated under non-light-shielding for 2 weeks and then the proliferation ability of iPS cells was studied. A 12-well plate coated with Matrigel was prepared, 10,000 cells per well were seeded in a single cell state. On the day when the cells were seeded, the evaluation was performed using the medium prepared above. The culture period was set to 7 days, and the cell confluency was measured using IncuCyte Zoom on day 7 from the start of the culture. At the time of seeding, a medium supplemented with Y-27632 at a final concentration of 10 μM was used. In the evaluation from the following day, the cells were cultured in a medium not supplemented with Y-27632.
To study the effective concentration range of FAD, which is an RFV derivative, the unperformed part of Example 5 was evaluated. A complete medium was prepared using Modified DMEM/F-12 (FMN−) as the basal medium and TeSR2 supplement as the supplement. FAD (Flavin Adenine Dinucleotide Disodium Salt Hydrate) was added to the complete medium at a final concentration of 0.47 to 15.2 μM. A medium supplemented with Fe^2+ and Zn^2+ at 100 mol % was prepared.

[2] = tested on: iPS cells (201B7 strain); test: Influence of Fe, Zn, RFV on storage stability of medium (iPS cell confluency); conditions: Essential 8 supplement; for contribution to lowering of storage stability of the medium: 100 vs 25 mol % in Modified DMEM/F-12 with FMN 20 mol %, refrigerated 2 weeks
Description: as §1, §2
To what extent Fe^2+, Zn^2+ and RFV contribute to the storage stability of the medium was studied. Complete media were respectively prepared by adding each component to Modified DMEM/F-12 (FMN−) (Table 5). Each medium was refrigerated under non-light-shielding for 0 and 2 weeks and then the proliferation ability of iPS cells was studied.
as §3, with “A” for “Each medium was refrigerated under non-light-shielding for 2 weeks and then the proliferation ability of iPS cells was studied. A”

[3] = tested on: iPS cells (201B7 strain); test: Effectiveness of RFV during iPS cell culture (cell confluency, day 7); conditions: Modified DMEM/F-12 (FMN-) + Essential 8 supplement, RFV 0.00-0.176 mg/L, Fe2+ and Zn2+ 25 or 100 mol %, Matrigel
Description: 201B7 strain purchased from iPS Academia Japan, Inc. was used as the iPS cell. Cell culture was performed using a culture vessel coated with Matrigel (Nippon Becton, Dickinson and Company: 354277) or iMatrix-511 (Nippi. Inc.: 892002) as an extracellular matrix under conditions of 5% CO2/37° C. Whether RFV is an essential component during iPS cell culture was studied. A complete medium was prepared by mixing the basal medium (Solution A: Modified DMEM/F-12 (FMN−)) and Essential 8 supplement (Solution B). Media were prepared by adding RFV to the complete medium to final concentrations of 0.00, 0.0176, 0.044, 0.088, 0.176 mg/L (No. 1 to No. 5 in Table 3). Along therewith, to grasp the influence of the reduced mineral components, media supplemented with Fe^2+ and Zn^2+ at 100 mol % were also prepared (No. 6 to No. 10 in Table 3). After preparing the medium, a 12-well plate coated with Matrigel was prepared, and 10,000 cells per well were seeded in a single cell state. On the day when the cells were seeded, the evaluation was performed using the medium prepared above. The culture period was set to 7 days, and the cell confluency was measured as an index of cell proliferation using IncuCyte Zoom (Essen Bioscience) on day 7 from the start of the culture. […]

[4] = 0.47 μM (80 mol % vs DMEM/F-12), Fe2+ and Zn2+ 25 mol %, Essential 8 supplement, medium refrigerated 2 weeks
[5] = 0.47 μM (80 mol % vs DMEM/F-12), Fe2+ and Zn2+ 25 mol %, TeSR2 supplement, medium refrigerated 2 weeks
[6] = 0.47 μM (80 mol % vs DMEM/F-12), Fe2+ and Zn2+ 100 mol %, Essential 8 supplement, medium refrigerated 2 weeks
[7] = 0.47 μM (80 mol % vs DMEM/F-12), Fe2+ and Zn2+ 100 mol %, TeSR2 supplement, medium refrigerated 2 weeks, Example 5
[8] = 1.52 μM (259 mol % vs DMEM/F-12), Fe2+ and Zn2+ 25 mol %, Essential 8 supplement, medium refrigerated 2 weeks
[9] = 1.52 μM (259 mol % vs DMEM/F-12), Fe2+ and Zn2+ 100 mol %, Essential 8 supplement, medium refrigerated 2 weeks
[10] = 2.57 μM (437 mol % vs DMEM/F-12), Fe2+ and Zn2+ 25 mol %, TeSR2 supplement, medium refrigerated 2 weeks
[11] = 15.2 μM (2587 mol % vs DMEM/F-12), Fe2+ and Zn2+ 25 mol %, TeSR2 supplement, medium refrigerated 2 weeks
[12] = 15.2 μM (2587 mol % vs DMEM/F-12), Fe2+ and Zn2+ 100 mol %, TeSR2 supplement, medium refrigerated 2 weeks, Example 5
[13] = 2.57 μM (437 mol % vs DMEM/F-12), Fe2+ and Zn2+ 100 mol %, TeSR2 supplement, medium refrigerated 2 weeks, Example 5

SMILES	cell growth [1, 4]	cell growth [1, 5]	cell growth [1, 6]	cell growth [1, 7]	cell growth ([1]; 0.47 μM (80 mol % vs DMEM/F-12), Fe2+ and Zn2+ 100 mol %, TeSR2 supplement, medium refrigerated 2 weeks, Example 6)	cell growth [1, 8]	cell growth [1, 9]	cell growth [1, 10]	cell growth ([1]; 2.57 μM (437 mol % vs DMEM/F-12), Fe2+ and Zn2+ 100 mol %, TeSR2 supplement, medium refrigerated 2 weeks, Example 6)	cell growth [1, 11]	cell growth [1, 12]	cell growth ([1]; 15.2 μM (2587 mol % vs DMEM/F-12), Fe2+ and Zn2+ 100 mol %, TeSR2 supplement, medium refrigerated 2 weeks, Example 6)	concentration at which culturing was possible (comparison) ([1]; Essential 8 or TeSR2 supplement, medium refrigerated 2 weeks)	storage stability of medium compared with RFV [1]	cell growth [1, 13]	contribution to lowering of storage stability of the medium [2]	effectiveness of RFV during iPS cell culture (cell confluency) [3]	cell growth after storage of medium ([2]; medium refrigerated non-light-shielded 2 weeks, Matrigel, day 7)
Cc1cc2nc3c(=O)[nH]c(=O)nc-3n(C[C@H](O)[C@H](O)[C@H](O)COP(=O)(O)OP(=O)(O)OC[C@H]3O[C@@H](n4cnc5c(N)ncnc54)[C@H](O)[C@@H]3O)c2cc1C [FAD, Flavin Adenine Dinucleotide Disodium Salt Hydrate]	◯	◯	◯	◯	◯	◯	X	◯	◯	◯	X	X	higher for FAD than FMN and RTB	higher storage stability than that of RFV	–	–	–	–
Cc1cc2nc3c(=O)[nH]c(=O)nc-3n(C[C@H](O)[C@H](O)[C@H](O)COP(=O)(O)O)c2cc1C [FMN, Riboflavin 5′-Monophosphate Sodium Salt]	◯	◯	◯	◯	–	X	X	◯	–	X	X	–	–	higher storage stability than that of RFV	X	–	–	–
O.O.O.O.O.O.O.O=S(=O)([O-])[O-].[Fe+2] [Fe^2+, iron (II) sulfate heptahydrate]	–	–	–	–	–	–	–	–	–	–	–	–	–	–	–	do not contribute to lowering of storage stability	–	–
Cc1cc2nc3c(=O)[nH]c(=O)nc-3n(C[C@H](O)[C@H](O)[C@H](O)CO)c2cc1C [RFV, riboflavin]	X	◯	X	◯	–	X	X	X	–	X	X	–	–	–	X	–	essential for cell culture	cells could not grow after storage for 2 weeks
CCCC(=O)OC[C@@H](OC(=O)CCC)[C@@H](OC(=O)CCC)[C@H](Cn1c2nc(=O)[nH]c(=O)c-2nc2cc(C)c(C)cc21)OC(=O)CCC [RTB, Riboflavin Tetrabutyrate]	◯	◯	◯	◯	–	X	X	X	–	X	X	–	–	higher storage stability than that of RFV	X	–	–	–
O.O.O.O.O.O.O.O=S(=O)([O-])[O-].[Zn+2] [Zn^2+, zinc sulfate heptahydrate]	–	–	–	–	–	–	–	–	–	–	–	–	–	–	–	do not contribute to lowering of storage stability	–	–
